For data set [1], the system named is Mycobacterium tuberculosis. In words: Antimycobacterial activity against Mycobacterium tuberculosis H37Rv assessed as reduction in bacterial growth measured after 16 to 24 hrs by microplate alamar blue assay. The class given is functional. To be noted: time 16-24 hrs.
Data set [2] addresses Polyketide synthase Pks13 (Mycobacterium tuberculosis (strain ATCC 25618 / H37Rv), UniProt I6X8D2). In words: Inhibition of Mycobacterium tuberculosis recombinant Pks13 expressed in Escherichia coli BL21 (DE3) cells using 4-methylumbelliferyl heptanoate as substrate incubated for 3 hrs by […] based analysis.
Data set [3] deals with Mycobacterium tuberculosis. In words: Antitubercular activity against Mycobacterium tuberculosis H37Rv assessed as reduction in microbial growth measured after 3 weeks by resazurin microplate reader assay. The class given is functional. Conditions: 504 h.
Data set [4] concerns Mycobacterium tuberculosis. In words: Antimycobacterial activity against Mycobacterium tuberculosis H37Rv assessed as reduction in bacterial growth incubated for 7 days by resazurin based assay. The class given is functional. Conditions: 168 h, time 7 day.
Data set [5] deals with Mycobacterium tuberculosis. In words: Antimycobacterial activity against Mycobacterium tuberculosis H37Rv assessed as reduction in bacterial growth. The class given is functional.
Data set [6] concerns Mycobacterium tuberculosis. In words: Antimycobacterial activity against Mycobacterium tuberculosis H37Rv assessed as reduction in microbial growth after 7 days by alamar blue assay. To be noted: 168 h, time 7 day. It counts as functional.
In data set [7] the test system is Mycobacterium tuberculosis. In words: Antimycobacterial activity against Mycobacterium tuberculosis H37Rv ATCC 27294 assessed as reduction in bacterial growth after 21 days by serial dilution method. It counts as functional. Conditions: H37Rv ATCC 27294, 504 h, time 21 day.
In the next data set the test system is HepG2. In words: Cytotoxicity against human HepG2 cells assessed as reduction in cell growth. The class given is functional, cell-based.
A short description of data set [8]: Cytotoxicity against African green monkey Vero cells assessed as reduction in cell viability. The class given is toxicity, cell-based. To be noted: African green monkey (Chlorocebus sabaeus).
In data set [9] the test system is Mycobacterium tuberculosis. In words: Antimycobacterial activity against Mycobacterium tuberculosis H37Rv assessed as reduction in bacterial cell growth by resazurin reduction method. It counts as functional.
Data set [10] is described as follows: Metabolic stability in mouse liver microsomes assessed as intrinsic clearance. The class given is ADME, Microsome.
The nature of data set [11]: Microsomal stability in human liver microsomes assessed as half life. The class given is ADME, Microsome.
For data set [12], the system named is Mycobacterium tuberculosis. In words: Antibacterial activity against Mycobacterium tuberculosis H37Rv assessed as inhibition of cell growth. It counts as functional.
Data set [13] has as its system Mycobacterium tuberculosis. In words: Antimycobacterial activity against Mycobacterium tuberculosis H37Rv assessed as microbial growth inhibition measured after 3 days by alamar blue assay. It counts as functional. To be noted: 72 h, time 3 day.

pIC50: −log10 of the molar value. In brackets after ≈: the same amount, converted by molar mass. Bounds are passed on as bounds.

Sequence of Polyketide synthase Pks13 (I6X8D2 whole entry): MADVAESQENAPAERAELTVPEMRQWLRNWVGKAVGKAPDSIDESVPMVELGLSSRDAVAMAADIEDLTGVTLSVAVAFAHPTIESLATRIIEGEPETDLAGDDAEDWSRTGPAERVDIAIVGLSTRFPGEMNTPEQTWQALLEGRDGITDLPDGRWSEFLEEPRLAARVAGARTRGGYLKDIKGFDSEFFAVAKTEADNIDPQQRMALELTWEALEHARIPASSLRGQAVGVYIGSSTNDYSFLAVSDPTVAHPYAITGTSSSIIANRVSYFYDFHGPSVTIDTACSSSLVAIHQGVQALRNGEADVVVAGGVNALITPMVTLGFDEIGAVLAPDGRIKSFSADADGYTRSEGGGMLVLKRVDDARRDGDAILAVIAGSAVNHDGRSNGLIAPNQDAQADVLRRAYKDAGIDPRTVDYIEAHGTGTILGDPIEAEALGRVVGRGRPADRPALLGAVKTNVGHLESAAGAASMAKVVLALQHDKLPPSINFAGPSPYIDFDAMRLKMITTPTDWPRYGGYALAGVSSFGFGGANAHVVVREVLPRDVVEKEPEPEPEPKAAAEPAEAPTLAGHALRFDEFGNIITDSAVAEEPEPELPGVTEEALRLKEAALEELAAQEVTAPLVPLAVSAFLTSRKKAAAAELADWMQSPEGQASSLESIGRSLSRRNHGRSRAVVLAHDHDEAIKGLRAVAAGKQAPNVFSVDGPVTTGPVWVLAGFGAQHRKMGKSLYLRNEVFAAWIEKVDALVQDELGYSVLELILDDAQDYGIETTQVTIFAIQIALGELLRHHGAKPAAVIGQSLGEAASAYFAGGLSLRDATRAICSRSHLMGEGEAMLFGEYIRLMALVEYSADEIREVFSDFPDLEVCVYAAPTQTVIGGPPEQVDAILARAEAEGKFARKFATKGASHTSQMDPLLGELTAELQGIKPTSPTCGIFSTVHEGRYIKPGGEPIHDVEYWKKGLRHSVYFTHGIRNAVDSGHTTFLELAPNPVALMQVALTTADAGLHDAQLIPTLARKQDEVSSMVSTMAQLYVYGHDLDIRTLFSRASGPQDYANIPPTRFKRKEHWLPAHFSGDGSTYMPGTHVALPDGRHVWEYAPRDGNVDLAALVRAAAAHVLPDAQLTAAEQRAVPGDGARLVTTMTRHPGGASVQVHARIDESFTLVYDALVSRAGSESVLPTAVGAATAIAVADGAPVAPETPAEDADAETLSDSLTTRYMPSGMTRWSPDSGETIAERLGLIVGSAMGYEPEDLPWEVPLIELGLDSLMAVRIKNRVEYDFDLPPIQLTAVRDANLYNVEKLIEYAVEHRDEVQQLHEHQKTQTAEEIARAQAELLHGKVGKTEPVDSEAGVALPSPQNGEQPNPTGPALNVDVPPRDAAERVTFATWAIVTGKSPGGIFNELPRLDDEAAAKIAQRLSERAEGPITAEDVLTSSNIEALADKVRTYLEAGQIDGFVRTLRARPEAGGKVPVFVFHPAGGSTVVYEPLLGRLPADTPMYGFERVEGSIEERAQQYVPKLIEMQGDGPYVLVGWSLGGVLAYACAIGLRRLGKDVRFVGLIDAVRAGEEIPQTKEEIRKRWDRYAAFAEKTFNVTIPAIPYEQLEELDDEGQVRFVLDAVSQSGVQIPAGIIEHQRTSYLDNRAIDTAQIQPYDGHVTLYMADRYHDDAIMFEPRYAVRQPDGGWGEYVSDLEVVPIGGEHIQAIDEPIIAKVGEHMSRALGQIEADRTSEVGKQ

`O=c1cc(-c2ccccc2O)oc2ccc(O)c(CN3CCC3)c12`: the MIC in data set [1] worked out at 0.45 µg/mL (≈ 1.39 µM). Further, in [2], the pIC50 is 7.84. On to `O=C(c1ccccc1)c1cc(Cl)ccc1OCc1nc(-c2ccc(C(F)(F)F)cc2)no1`, for which the minimal inhibitory concentration (MIC) in data set [3] worked out at 8 µg/mL. `CCOC(=O)c1c(NC(=O)c2c(F)c(F)c(F)c(F)c2F)sc(C(N)=O)c1C`: the MIC in [4] and in [5] was 0.5 µM (≈ 0.211 µg/mL) in each case. Consider `CCOC(=O)c1c(NC(=O)c2c(F)c(F)c(F)c(F)c2F)sc2c1CCN(CC)C2`, for which the MIC in data set [6] was 0.23 µM. With `CCN(CC)CCCC(C)Nc1c2ccc(Cl)cc2nc2ccc(OC)cc12` (stereo not drawn) [QUINACRINE], the MIC in [7] is 64 µg/mL (≈ 160 µM).

Turning to `COC(=O)c1c(NC(=O)c2c(F)c(F)c(F)c(F)c2F)sc2c1CCCCC2`, the figures for the pIC50 (in the data set on HepG2; in data set [8]) were 5.14 and 4.76, respectively. For the same molecule, the MIC in data set [4] amounted to 1 µM (≈ 0.419 µg/mL); in data set [5], 0.5 µM (≈ 0.21 µg/mL). Take `CNC(=O)c1c(-c2ccccc2)oc2ccc(O)c(CN3CCCCC3)c12`: in data set [9], the MIC stood at 0.29 µM (≈ 0.106 µg/mL). In the case of `COc1ccccc1OCCNCC(O)COc1cccc2[nH]c3ccccc3c12` (stereo not drawn) [CARVEDILOL], the MIC in [7] was 32 µg/mL (≈ 78.7 µM). Consider `CNC(=O)c1c(-c2ccc(O)cc2)oc2ccc(O)c(CN3CCCCC3)c12`, for which, in data set [10], the CLH is < 0.5 mL/min/g. Consider `CCOC(=O)c1c(-c2ccccc2)oc2ccc(O)c(CN3CCC(C)CC3)c12`, for which, in data set [11], the half-life was determined as 18.8 min. Consider `CCCCCCCCCCC[C@@H](C[C@@H]1OC(=O)[C@H]1CCCCCC)OC(=O)[C@H](CC(C)C)NC=O` [ORLISTAT], for which, in data set [12], the MIC came out at 15 µM (≈ 7.44 µg/mL). Regarding `Cc1ccc(-c2cc(C(F)(F)F)nn2-c2ccc(S(N)(=O)=O)cc2)cc1` [CELECOXIB], the MIC in data set [7] was found to be 64 µg/mL (≈ 168 µM). Regarding `C=CCCCCCCC[C@H]1C(=O)O[C@@H]1CCCCCNC(=O)c1ccc(N(C)C)cc1`, the MIC in data set [13] came out at 1.6 µM (≈ 0.686 µg/mL).

The values above are taken from ChEMBL document CHEMBL5634083, “Targeting polyketide synthase 13 for the treatment of tuberculosis” (Eur J Med Chem, 2023).
